≈ marks a conversion by molar mass, not a printed value. Where “and” joins values, the source holds several entries; their conditions need not be identical. Equal entries are not always repeated. Marks after values point to notes of the source that are not given here.
What was measured:
MRSA03 = assay: Checkerboard combination with antibiotic (FIC); format: cell-based, Staphylococcus aureus; settings: combined with ciprofloxacin
[1] = test system: bacterial and yeast species; assay: Checkerboard combination with antibiotics, whole panel; format: cell-based; settings: overall statement over the microorganisms tested
Method: (§1) The inoculum was initially prepared as described above. The test microorganisms were inoculated into a 96-well microtitre plates and a serial dilution of two antimicrobial agents: antibiotic and MeOH extract, compound 2 or 4. Each well consisted of unique combination of test sample and antibiotic concentrations. The plates were then incubated for 24 h at 37 °C. The analyses were performed in triplicates. And the antimicrobial agents interactions were evaluated by calculating the fractional inhibitory concentration (FIC) indices. The FIC is defined as follows: MIC of antibiotic tested in combination/MIC of antibiotic tested alone + MIC of extract/compound tested in combination/MIC of extract/compound tested alone. The FIC index is interpreted as FIC ≤ 0.5: synergistic effect, 0.5 < FIC ≤1: additive effect, 1 < FIC ≤2: indifferent effect, and FIC > 2.0: antagonistic effect.

P. aeruginosa [2] = assay: Sugar leakage through membrane of bacteria; settings: ½ MIC, 2 MIC, 12 h
Method: After incubation, the mixture was centrifuged at 12,000 rpm and the supernatant was collected. The concentration of reducing sugar was determined spectrophotometrically at 550 nm using 3–5 dinitro-salicylic acid (DNS) [29].

P. aeruginosa [3] = assay: Checkerboard combination with antibiotic (FIC); format: cell-based, Pseudomonas aeruginosa; settings: combined with ciprofloxacin
[4] = test system: respiratory chain dehydrogenase in P. aeruginosa; assay: Respiratory chain dehydrogenase enzyme activity (TTC reduction); format: cell-based, Pseudomonas aeruginosa; settings: increasing concentration, 0, 30, 60 min
S. flexneri [5] = assay: Checkerboard combination with antibiotic (FIC); format: cell-based, Shigella flexneri; settings: combined with ciprofloxacin
Method: as §1

P. aeruginosa [6] = assay: Cell membrane leakage assay (260 and 280 nm absorbing material); format: cell-based, Pseudomonas aeruginosa; settings: at concentrations equal to or two times MIC, concentration dependent
Method: (§2) The alteration of cell membrane of P. aeruginosa and S. flexneri was evaluated by measuring the optical densities at 260 nm and 280 nm of the bacterial suspensions in the presence and absence of MeOH extract and compound 2 using the method described by Karsha and Lakshmi.

[7] = test system: methicillin resistant S. aureus MRSA03; assay: Broth microdilution MIC/MMC
C. neoformans = assay: Checkerboard combination with antibiotic (FIC); format: cell-based, Cryptococcus neoformans; settings: combined with fluconazole
S. flexneri [8] = assay: Sugar leakage through membrane of bacteria; format: cell-based, Shigella flexneri; settings: ½ MIC, 2 MIC, 12 h
[9] = test system: respiratory chain dehydrogenase in S. flexneri; format: cell-based, Shigella flexneri; settings: 0, 30, 60 min
[10] = DPPH free radical scavenging assay; format: biochemical; settings: mean ± SD, triplicate
Method: The free radical scavenging activity of extracts and compounds was evaluated according to described methods. The EC50 (μg/ml), which is the amount of sample necessary to inhibit by 50% the absorbance of free radical DPPH was calculated. Vitamin C was used as a standard control. All the analyses were carried out in triplicate.

[11] = test system: methicillin sensitive S. aureus MSSA01; assay: Broth microdilution MIC/MMC
C. albicans = assay: Checkerboard combination with antibiotic (FIC); format: cell-based, Candida albicans; settings: combined with fluconazole
[12] = test system: Candida albicans ATCC10231; assay: Broth microdilution MIC/MMC
[13] = test system: Pseudomonas aeruginosa ATCC27853; assay: Broth microdilution MIC/MMC
S. flexneri [14] = assay: Cell membrane leakage assay (260 and 280 nm absorbing material); format: cell-based, Shigella flexneri; settings: at concentrations equal to or two times MIC, concentration dependent
Method: as §2

Shigella flexneri SDINT = assay: Broth microdilution MIC/MMC
[15] = Gallic acid equivalent antioxidant capacity (GEAC) assay; format: biochemical; settings: laccase/ABTS, 420 nm after 240 s; mean ± SD
Method: The GEAC test was done as previously described with slight modifications. In a quartz cuvette, to 950 μL acetate buffer (pH =5.0, 100 mM), the following were added: 20 μL laccase (1 mM stock solution), 20 μL test sample, 10 μL ABTS (2,2′-azinobis(3-ethylbenzothiazoline-6-sulfonic acid) (74 mM stock solution). The purification of laccase from Sclerotinia sclerotiorum was done according to the protocol described. The sample concentrations in the assay mixture were 800, 400, 200, 100, 10 μg/mL for the extracts and 200, 100, 50, 25, 12.5, 6.25, 3.125, 1.56 μg/mL for the isolated compounds. The content of the generated ABTS^●+ radical was measured at 420 nm after 240 s reaction time and was converted to gallic acid equivalents by the use of a calibration curve (Pearson’s correlation coefficient: r = 0.997) constructed with 0, 4, 10, 14, 28, 56, 84 μM gallic acid standards rather than Trolox. Experiments were done in triplicate.

[16] = test system: Staphylococcus aureus ATCC25923; assay: Broth microdilution MIC/MMC
MSSA01 = assay: Checkerboard combination with antibiotic (FIC); format: cell-based, Staphylococcus aureus; settings: combined with ciprofloxacin
S. aureus = assay: Checkerboard combination with antibiotic (FIC); format: cell-based, Staphylococcus aureus; settings: combined with ciprofloxacin
[17] = test system: Cryptococcus neoformans H99; assay: Broth microdilution MIC/MMC
red blood cells (RBCs) = format: cell-based, Wistar rats (Rattus novergicus)
Method: Three male Wistar rats (Rattus novergicus), aged 10–12 weeks and weighing 230 to 240 g were used. These animals were bred in the animal house of the University of Dschang, Cameroon. Efforts were also made to minimize animal suffering and to reduce the number of animal used in the experiment. All the rats were anaesthesized via intraperitoneal injection of the mixture of ketamine (50 mg/ kg body weight, BW) and xylazine (10 mg /kg BW), in a dose that is commonly used for operation purposes. Subsequently the unconscious animals were decapitated swiftly and the whole blood (10 mL) was collected by cardiac puncture into a conical tube containing Ethylene Diamine Tetra Acetic Acid (EDTA) as an anticoagulant. Erythrocytes were obtained by centrifugation at room temperature for 10 min at 1000 x g and were washed three times in PBS buffer. The cytotoxicity was evaluated as previously described.
The cytotoxic activity of extracts and isolated compounds from R. abyssinicus was studied by assessing the haemolytic activity against red blood cells (RBCs) using Triton X-100 as a positive control.

## COc1cc(O)c2c(c1)C(=O)c1cc(C)cc(O)c1C2=O [Compound 2, Physcion]
MRSA03
  FIC (fractional inhibitory concentration index): 0.5625
  FICEx / FIC2 / FIC5 (MIC of extract/compound tested in combination/MIC of extract/compound tested alone): 0.5
MRSA03; 24 h at 37 °C
  FICA (MIC of antibiotic tested in combination/MIC of antibiotic tested alone): 0.0625
[1]
  effect of the association with ciprofloxacin (bacteria) / fluconazole (yeasts): synergistic
P. aeruginosa [2]
  appearance of reducing sugar in the bacterial culture suspension: increased
P. aeruginosa [3]
  Interpretation (of FIC index): Synergistic (FIC ≤ 0.5: synergistic effect)
P. aeruginosa [3]; checkerboard
  FICEx / FIC2 / FIC5 (MIC of extract/compound tested in combination/MIC of extract/compound tested alone): 0.125
P. aeruginosa [3]; checkerboard, 24 h at 37 °C
  FICA (MIC of antibiotic tested in combination/MIC of antibiotic tested alone): 0.125
[4]
  respiratory chain dehydrogenase activity (TPF formed): significant decrease in the TPF formed
S. flexneri [5]
  Interpretation (of FIC index): Synergistic (FIC ≤ 0.5: synergistic effect)
S. flexneri [5]; checkerboard
  FIC (fractional inhibitory concentration index): 0.281
  FICEx / FIC2 / FIC5 (MIC of extract/compound tested in combination/MIC of extract/compound tested alone): 0.25
S. flexneri [5]; checkerboard, 24 h at 37 °C
  FICA (MIC of antibiotic tested in combination/MIC of antibiotic tested alone): 0.031
P. aeruginosa [6]
  leakage of biological material absorbing at 260 and 280 nm: induced leakage
[7]; MRSA03
  MMC/MIC: 2
[7]; MRSA03, sub-culturing after broth microdilution
  MMC: 32 µg/mL
[7]; Staphylococcus aureus
  MIC: 16 µg/mL (≈ 56.3 µM)
C. neoformans
  Interpretation (of FIC index): Synergistic (FIC ≤ 0.5: synergistic effect)
C. neoformans; checkerboard
  FIC (fractional inhibitory concentration index): 0.125
  FICEx / FIC2 / FIC5 (MIC of extract/compound tested in combination/MIC of extract/compound tested alone): 0.0625
C. neoformans; checkerboard, 24 h at 37 °C
  FICA (MIC of antibiotic tested in combination/MIC of antibiotic tested alone): 0.0625
S. flexneri [8]
  appearance of reducing sugar in the bacterial culture suspension: increased
[9]
  respiratory chain dehydrogenase activity (TPF formed): significant decrease in the TPF formed
[10]
  DPPH free radical scavenging activity (EC50): 3.08 ± 0.44^e μg/mL
[11]; MSSA01
  MMC/MIC: 2
[11]; MSSA01, sub-culturing after broth microdilution
  MMC: 32 µg/mL
[11]; Staphylococcus aureus
  MIC: 16 µg/mL (≈ 56.3 µM)
C. albicans
  Interpretation (of FIC index): Synergistic (FIC ≤ 0.5: synergistic effect)
C. albicans; checkerboard
  FIC (fractional inhibitory concentration index): 0.125
  FICEx / FIC2 / FIC5 (MIC of extract/compound tested in combination/MIC of extract/compound tested alone): 0.0625
C. albicans; checkerboard, 24 h at 37 °C
  FICA (MIC of antibiotic tested in combination/MIC of antibiotic tested alone): 0.0625
[12]; C. albicans
  MMC/MIC: 1
[12]; C. albicans, sub-culturing after broth microdilution
  MMC: 8 µg/mL
[12]; Candida albicans, ATCC10231
  MIC: 8 µg/mL (≈ 28.1 µM)
[13]; P. aeruginosa
  MMC/MIC: 2
[13]; P. aeruginosa, sub-culturing after broth microdilution
  MMC: 16 µg/mL
[13]; Pseudomonas aeruginosa, ATCC27853
  MIC: 8 µg/mL (≈ 28.1 µM)
S. flexneri [14]
  leakage of biological material absorbing at 260 and 280 nm: induced leakage
Shigella flexneri SDINT; S. flexneri
  MMC/MIC: 2
Shigella flexneri SDINT; S. flexneri, sub-culturing after broth microdilution
  MMC: 16 µg/mL
Shigella flexneri SDINT; Shigella flexneri
  MIC: 8 µg/mL (≈ 28.1 µM)
[15]
  Gallic acid equivalent antioxidant capacity (GEAC): 104.87 ± 1.43 μg/mL and 106.03 ± 0.87^d μg/mL
[16]; S. aureus
  MMC/MIC: 1
[16]; S. aureus, sub-culturing after broth microdilution
  MMC: 8 µg/mL
[16]; Staphylococcus aureus, ATCC25923
  MIC: 8 µg/mL (≈ 28.1 µM)
MSSA01
  FIC (fractional inhibitory concentration index): 0.5625
  FICEx / FIC2 / FIC5 (MIC of extract/compound tested in combination/MIC of extract/compound tested alone): 0.5
MSSA01; 24 h at 37 °C
  FICA (MIC of antibiotic tested in combination/MIC of antibiotic tested alone): 0.0625
S. aureus
  Interpretation (of FIC index): Synergistic (FIC ≤ 0.5: synergistic effect)
S. aureus; checkerboard
  FIC (fractional inhibitory concentration index): 0.375
  FICEx / FIC2 / FIC5 (MIC of extract/compound tested in combination/MIC of extract/compound tested alone): 0.125
S. aureus; checkerboard, 24 h at 37 °C
  FICA (MIC of antibiotic tested in combination/MIC of antibiotic tested alone): 0.25
[17]; C. neoformans
  MMC/MIC: 1
[17]; C. neoformans, sub-culturing after broth microdilution
  MMC: 8 µg/mL
[17]; Cryptococcus neoformans, H99
  MIC: 8 µg/mL (≈ 28.1 µM)

## Triton X-100
Red blood cells (RBCs)
  lysis of RBCs: 100%

— publication PMC8180025, “Antibacterial, antifungal and antioxidant activities of whole plant chemical constituents of Rumex abyssinicus” (BMC Complementary Medicine and Therapies, 2021)
